Source: PMC4912613, “A broad analysis of resistance development in the malaria parasite” (Nature Communications, 2016)
Read-outs that look alike come from different tables or passages of the source.

Assays:
[1] = tested on: ATQ-R4 (cytb M133I and L144S, parent 3D7); assay: Cross-resistance EC50 assay, ATQ-R4; type: cell-based, Plasmodium falciparum; details: Plasmodium falciparum, 3D7; SYBR green 72 hour assay; asynchronized parasites; 96-well or 1536-well format; ATQ-R4
Source text: (§1) To evaluate potential overlapping activity against known antimalarial drug targets, we performed dose-response studies with each compound against our assembled set of drug-resistant lines and their corresponding parents, in an asexual blood stage proliferation assay (Table 1). Comparisons were made to the drug-sensitive strain 3D7 when a parent was unavailable (TM90C2A, W2 and Dd2). As laboratories conducted EC50 assays with different strains and protocols, all comparisons were made between assays from the same laboratory and under the same assay conditions. Compounds displaying >5-fold EC50 shifts relative to the parent or sensitive strain were flagged as having potentially non-novel targets. Average fold shifts per strain ranged from 0.82 to 2.34, with a median of 1.23 indicating there was not common resistance to any one resistant clone. No resistance patterns were observed when classifying the compounds based on chemical structure, but this was not surprising given the diversity of compounds chosen. On the other hand, given that these confirmed compounds were derived from larger unconfirmed hit lists to which some filtration criteria may have been applied (for example, elimination of obvious dihydrofolate reductase inhibitors[32]), some[10][11][12][13] pre-existing bias may exist in the set. […]
(§2) Alternatively, a SYBR Green-based proliferation approach was used for the 72-h assay, as previously described. Briefly, a culture of either synchronized or asynchronous parasitized RBCs (0.3% parasitemia and 4% haematocrit) in screening medium (identical to supplemented medium above except no serum was added) was exposed to serial drug dilutions. Plates were incubated at 37 °C and gassed with 93% N2, 4% CO2 and 3% O2 for 72 h. Following incubation, 10 × SYBR Green I (Invitrogen; supplied in 10,000 × concentration) in lysis buffer ([…], 5 mM EDTA, 0.16% Saponin wt per vol and 1.6% Triton X vol per vol) was added to the wells and the plates were incubated overnight at room temperature before plate reading. EC50 assays were repeated three times, taking the average EC50 value from each assay set, and removing any outliers using a single iteration of Grubbs' test, eliminating values with z-scores above the critical z-value (α=0.05). The raw EC50 values for synchronized parasites assayed in a 384-well format are listed in Supplementary Data 4. The raw EC50 values for asynchronous parasites assayed in a 96 or 1536-well format are listed in Supplementary Data 5.
(§3) EC50 values for each strain were compared with those of the corresponding parent strain to determine fold-shift changes and identify resistance. To minimize the cause variance between assays, all comparisons were conducted between strains assayed under identical conditions. A one-way ANOVA followed by a Dunnet's post-test was conducted in GraphPad Prism to identify significant changes between the parent and resistant strain.

[2] = tested on: NITD609-R2 (PfATP4 T418N and P990R, parent Dd2); assay: Cross-resistance EC50 assay, NITD609-R2; type: cell-based; details: Plasmodium falciparum, SYBR green 72 hour assay, asynchronized parasites, 96-well or 1536-well format
Source text: as §1, §2, §3

3D7 = assay: Cross-resistance EC50 assay, 3D7 parent / sensitive strain; type: cell-based; details: Plasmodium falciparum
Source text: Multidrug resistance alleles, including mutations in P. falciparum chloroquine resistance transporter (pfcrt) and P. falciparum multi-drug resistance transporter 1 (pfmdr1) are very common in field isolates. Therefore, we sought to assess the degree to which pre-existing resistance alleles would contribute to a loss of potency for this diverse collection of small molecule compounds. Fifteen clones derived from three main parent lines were chosen to maximize diversity in mutated pathways and genetic backgrounds, thus representing the variety of resistance seen in the field: 3D7 (ref. [23]), W2 (ref. [24]) or Dd2 (ref. [25]). The 3D7 line originates from the clone of a Netherlands clinical isolate strain[23][26] and is generally considered to be drug sensitive, though it does convey resistance to sulfadoxine. Conversely, W2 (ref. [24], [27]) and Dd2 (ref. [25]) are multi-drug-resistant lines originating from the Indochina III/CDC isolate, which contain point mutations in pfcrt as well as amplifications in pfmdr1 and GTP cyclohydrolase.
To evaluate potential overlapping activity against known antimalarial drug targets, we performed dose-response studies with each compound against our assembled set of drug-resistant lines and their corresponding parents, in an asexual blood stage proliferation assay (Table 1). Comparisons were made to the drug-sensitive strain 3D7 when a parent was unavailable (TM90C2A, W2 and Dd2). As laboratories conducted EC50 assays with different strains and protocols, all comparisons were made between assays from the same laboratory and under the same assay conditions. Compounds displaying >5-fold EC50 shifts relative to the parent or sensitive strain were flagged as having potentially non-novel targets. Average fold shifts per strain ranged from 0.82 to 2.34, with a median of 1.23 indicating there was not common resistance to any one resistant clone. No resistance patterns were observed when classifying the compounds based on chemical structure, but this was not surprising given the diversity of compounds chosen. On the other hand, given that these confirmed compounds were derived from larger unconfirmed hit lists to which some filtration criteria may have been applied (for example, elimination of obvious dihydrofolate reductase inhibitors[32]), some[10][11][12][13] pre-existing bias may exist in the set.
The 48-h assay was carried out in a 96-well format following standard methods using the ^3H-hypoxanthine incorporation assay. The raw EC50 values corresponding to this assay can be found in Supplementary Data 3. Briefly, this assay relies on the parasite incorporation of labelled hypoxanthine that is proportional to P. falciparum growth. A culture of parasitized RBCs (0.5% parasitemia with a percentage of ring stage higher than 70% of total parasitemia, 2.0% haematocrit) in RPMI-1640, […] and 5 μM hypoxanthine was exposed to drug serial dilutions. Plates were incubated for 24 h at 37 °C, 5% CO2, 5% O2 and 90% N2. After 24 h of incubation, ^3H-hypoxanthine was added and plates were incubated for an additional 24-h period. After that, parasites were harvested on a glass fibre filter using a TOMTEC Cell Harvester 96. Filters were dried and melt-on scintillator sheets were used to determine the incorporation of ^3H-hypoxanthine. Radioactivity was measured using a microbeta counter. Data were normalized using the incorporation of the positive (parasitized RBCs without drug) and negative (same culture with artesunate at 2 μM) controls. All assays were conducted in triplicate using three independently grown cultures, and EC50 values were determined using the XLfit add-in module for Excel (version 2.3.1) from Grafit (version 5.3.1.3), where parameter h is the assay hill slope, x is the compound concentration and y is the inhibition of growth effect. The XLfit equation is: […]
Alternatively, a SYBR Green-based proliferation approach was used for the 72-h assay, as previously described. […]

[3] = SYBR green 72 hour assay, asynchronized parasites, 96-well or 1536-well format, 3D7 parent, read-out: 3D7 (PARENT) EC50 (µM) Average EC50
[4] = SYBR green 72 hour assay, synchronized parasites, 384-well format, strain 3D7 (parent), read-out: 3D7 (PARENT) Average EC50
[5] = hypoxanthine 48-hour assay, synchronized parasites, 96-well format, strain 3D7 (parent), read-out: 3D7 (PARENT) Average EC50
[6] = hypoxanthine 48-hour assay, synchronized parasites, 96-well format, strain 3D7-C9-WT (parent of PfATP4 Mut3), read-out: 3D7-C9-WT (PARENT) Average EC50

| SMILES | EC50 [1] [µM] | EC50 [2] [µM] | EC50 (3D7; [3]) [µM] | EC50 (3D7; [4]) [µM] | EC50 (3D7; [5]) [µM] | EC50 (3D7; [6]) [µM] |
| --- | --- | --- | --- | --- | --- | --- |
| COc1cc(-c2nc(-c3ccccc3)c(-c3ccccc3)[nH]2)cc(OC)c1O [MMV020750] | 0.912 | 1.22 | 0.575 | 0.597 | 0.342 | 0.656 |
| CCCCCCCN(Cc1ccc(OC(C)(C)C(=O)OCC)cc1)C(=O)Nc1ccc(Cl)cc1OCC [MMV021735] | 0.056 | 0.773 | 0.054 | 0.383 | 0.459 | 0.543 |
| CN(C)Cc1ccc(-c2cc3c(-c4ccc(CN(C)C)cc4)ccnc3[nH]2)cc1.O=C(O)C(F)(F)F [MMV022224] | 0.372 | 0.406 | 0.224 | 0.242 | 0.343 | 0.356 |
| Nc1ncc(-c2cn[nH]c2)cc1-c1nc2ccc(F)cc2[nH]1 [MMV023367] | 1.67 | 1.6 | 1.13 | 0.519 | 0.303 | 0.269 |
| CN(C)S(=O)(=O)c1cc(-c2ccc3nccc(-c4cccc(S(N)(=O)=O)c4)c3c2)cnc1N [MMV024038] | 1.16 | 0.958 | 0.764 | 0.217 | 0.174 | 0.258 |
| Cc1ccc(S(=O)(=O)n2cc(-c3ccnc(N)c3)c3cc(Br)cnc32)cc1 [MMV024114] | 1.99 | 1.86 | 1.17 | 0.418 | 0.264 | 0.219 |
| CNCc1ccc2nc(-c3coc(Cc4cc(Cl)ccc4OCC(C)C)n3)[nH]c2c1.Cl.Cl [MMV026596] | 0.303 | 0.206 | 0.304 | 0.321 | 0.377 | 0.472 |
| COc1cc(-c2nc(-c3ccccc3)c(-c3ccccc3)[nH]2)ccc1OCCN(C)C [MMV027496] | 0.305 | 0.755 | 0.241 | 0.118 | 0.112 | 0.084 |
| Cc1nc2ccc3ccc(CNc4ccc(C(=O)CC(CCC(=O)O)C(=O)O)cc4)cc3c2c(=O)[nH]1.Cl (stereo not drawn) [MMV027634] | 0.194 | 0.14 | 0.148 | 0.029 | 0.025 | 0.042 |
| CC(C)c1cccc(C(NC(=O)C2Cc3ccccc3CN2C(=O)c2cccc(N3CCOCC3)c2)C2CCCC2)c1 (stereo not drawn) [MMV028038] | 1.01 | 0.612 | 1.09 | 0.822 | 0.577 | 0.833 |
| CN(C)CCCN(C)C(=O)C1Cc2cc(-c3ccccc3)ccc2N1S(=O)(=O)c1ccccc1 (stereo not drawn) [MMV028895] | 1.07 | 2.17 | 0.625 | 0.049 | 0.081 | 0.052 |
| O=C(NCC(CCCN1CCC(c2c[nH]c3ccccc23)CC1)c1ccccc1)Nc1ccc(Cl)c(Cl)c1 (stereo not drawn) [MMV029272] | 9.56 | 0.152 | 2.87 | 0.17 | 0.139 | 0.115 |
| CC(C)(C)OC(=O)N1CCN(c2ccccc2NC(=O)c2cccc(C(F)(F)F)c2Oc2ccc(F)cc2)CC1 [MMV030666] | 0.448 | 0.221 | 0.122 | 0.627 | 0.494 | 0.333 |
| CC(NCc1ccccc1)c1cc(Cl)ccc1O (stereo not drawn) [MMV665789] | 0.41 | 0.261 | 0.17 | 1 | 1.25 | 1.25 |
| FC(F)(F)c1cccc(Nc2nc3ccccc3nc2Nc2cccc(C(F)(F)F)c2)c1 [MMV665794] | 0.434 | 0.321 | 0.318 | 0.164 | 0.103 |  |
| O=C(Nc1ccc(Cl)c(Cl)c1)Nc1ccc(Cl)c(Cl)c1 [MMV665852] | 2.89 | 1.75 | 1.55 | 1.16 | 1.24 |  |
| OC(CNC1CCCCC1)Cn1c2ccc(I)cc2c2cc(I)ccc21 (stereo not drawn) [MMV665882] | 0.026 | 0.046 | 0.023 | 0.035 | 0.075 | 0.158 |
| O=C(Nc1ccccc1O)c1ccc(Oc2cccc(C(=O)Nc3ccccc3O)c2)cc1 [MMV665888] | 1.05 | 0.812 | 0.295 | 0.614 | 1.16 |  |
| COc1ccc(C(=O)C2CC2c2ccc(Cl)cc2)cc1 (stereo not drawn) [MMV665924] | 3.41 | 1.69 | 2.46 | 0.976 | 0.824 | 0.487 |
| CCC(C)NCC(O)(c1ccc(Cl)cc1)c1ccc(Cl)cc1 (stereo not drawn) [MMV665928] | 0.09 | 0.18 | 0.028 | 0.972 | 0.494 | 1.16 |
| O=C(Nc1ccsc1C(=O)NC1CCCCC1)c1ccc(F)cc1 [MMV665939] | 3.73 | 1.4 | 1.22 | 0.726 | 1.04 | 2.1 |
| Nc1ccc(-c2nc3cc(Cc4ccc5[nH]c(-c6ccc(N)cc6)nc5c4)ccc3[nH]2)cc1 [MMV665943] | 0.045 | 0.334 | 0.034 | 0.369 | 0.316 | 0.198 |
| O=C(NC(c1ccccc1)c1ccc2cccnc2c1O)c1ccccc1 (stereo not drawn) [MMV666080] | 0.746 | 1.19 | 0.723 | 0.682 | 0.845 | 3.92 |
